Test results: patent US12559529B2, “NPY2 receptor agonists” (Boehringer Ingelheim International GmbH, priority 2019, dated 2026)

Target: T1, Human Neuropeptide Y2 Receptor (Homo sapiens, UniProt P49146)
T1 construct: purchased CHEMICON HTS066M
T1 sequence (P49146 1-381): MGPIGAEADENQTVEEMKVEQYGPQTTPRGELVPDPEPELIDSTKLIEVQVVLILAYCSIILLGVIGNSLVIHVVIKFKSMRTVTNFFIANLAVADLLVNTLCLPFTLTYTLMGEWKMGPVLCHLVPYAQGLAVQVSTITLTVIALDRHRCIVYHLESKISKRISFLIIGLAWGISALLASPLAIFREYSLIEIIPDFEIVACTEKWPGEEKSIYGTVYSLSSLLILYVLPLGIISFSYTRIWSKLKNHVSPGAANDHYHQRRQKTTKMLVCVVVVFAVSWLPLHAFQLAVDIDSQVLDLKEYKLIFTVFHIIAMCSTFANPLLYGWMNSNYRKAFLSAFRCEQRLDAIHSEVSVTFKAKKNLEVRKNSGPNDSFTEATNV
Experiment: Radioligand binding competition assay (RLB)
Settings: Table 3; human 125I-PYY (1-36) 0.02 nM, Y2 receptor membranes; read-out: Ki
Outline: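 Competition binding at commercial human NPY Y2 membrane preparations, 0.5 μg protein per well, 2 h incubation at room temperature. Bound and free ligand were separated on GF/C filters and counted; IC50 was fitted by nonlinear regression.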

Ki	Compound
1570 pM	CC(C)CC(=O)N[C@@H](C)C(=O)N1CCC[C@H]1C(=O)N[C@@H](CCC(=O)O)C(=O)N[C@@H](CCCCNC(=O)COCCOCCNC(=O)COCCOCCNC(=O)CC[C@H](NC(=O)CCCCCCCCCCCCCCCCC(=O)O)C(=O)O)C(=O)N1CCC[C@H]1C(=O)N[C@@H](CCC(=O)O)C(=O)N[C@@H](CCC(=O)O)C(=O)N[C@@H](CC(=O)O)C(=O)N[C@H](C(=O)N[C@@H](CO)C(=O)N1CCC[C@H]1C(=O)N[C@@H](CCC(=O)O)C(=O)N[C@@H](CCC(=O)O)C(=O)N[C@@H](CC(C)C)C(=O)N[C@@H](CCC(N)=O)C(=O)N[C@@H](CCCNC(=N)N)C(=O)N[C@@H](Cc1ccc(O)cc1)C(=O)N[C@@H](Cc1ccc(O)cc1)C(=O)N[C@H](C(=O)N[C@@H](CO)C(=O)N[C@@H](CC(C)C)C(=O)N[C@@H](CCCNC(=N)N)C(=O)N[C@@H](Cc1c[nH]cn1)C(=O)N[C@@H](Cc1ccc(O)cc1)C(=O)N[C@@H](Cc1ccc(O)cc1)C(=O)N[C@@H](CC(N)=O)C(=O)N[C@@H](Cc1c[nH]c2ccccc12)C(=O)N[C@@H](CC(C)C)C(=O)N[C@H](C(=O)N[C@@H](CCCNC(=N)N)C(=O)N[C@@H](CCC(N)=O)C(=O)N[C@@H](CCCNC(=N)N)C(=O)N[C@@H](Cc1ccc(O)cc1)C(N)=O)[C@@H](C)O)C(C)C)[C@@H](C)O [Compound 92, N{alpha-4}-(3-methylbutanoyl)-N{epsilon-7}-[2-(2-{2-[2-(2-{2-[(4S)-4-carboxy-4-(17-carboxyheptadecanamido)butanamido]ethoxy}ethoxy)acetamido]ethoxy}ethoxy)acetamido]-[4A,7K,9E,12T,18Q,22V,28Y,30W,31L]hPYY (4-36)]
2070 pM	CC(C)CC(=O)N[C@@H](C)C(=O)N1CCC[C@H]1C(=O)N[C@@H](CCC(=O)O)C(=O)N[C@@H](CCCCNC(=O)COCCOCCNC(=O)COCCOCCNC(=O)CC[C@H](NC(=O)CCCCCCCCCCCCCCCCC(=O)O)C(=O)O)C(=O)N1CCC[C@H]1C(=O)N[C@@H](CCC(=O)O)C(=O)N[C@@H](CCC(=O)O)C(=O)N[C@@H](CC(=O)O)C(=O)N[C@@H](C)C(=O)N[C@@H](CO)C(=O)N1CCC[C@H]1C(=O)N[C@@H](CCC(=O)O)C(=O)N[C@@H](CCC(=O)O)C(=O)N[C@H](C(=O)N[C@@H](CCC(N)=O)C(=O)N[C@@H](CCCNC(=N)N)C(=O)N[C@@H](Cc1ccc(O)cc1)C(=O)N[C@@H](Cc1ccc(O)cc1)C(=O)N[C@H](C(=O)N[C@@H](CCC(=O)O)C(=O)N[C@@H](CC(C)C)C(=O)N[C@@H](CCCNC(=N)N)C(=O)N[C@@H](Cc1c[nH]cn1)C(=O)N[C@@H](Cc1ccc(O)cc1)C(=O)N[C@@H](Cc1ccc(O)cc1)C(=O)N[C@@H](CC(N)=O)C(=O)N[C@@H](Cc1c[nH]c2ccccc12)C(=O)N[C@@H](CC(C)C)C(=O)N[C@H](C(=O)N[C@@H](CCCNC(=N)N)C(=O)N[C@@H](CCC(N)=O)C(=O)N[C@@H](CCCNC(=N)N)C(=O)N[C@@H](Cc1ccc(O)cc1)C(N)=O)[C@@H](C)O)C(C)C)[C@@H](C)O [Compound 94, N{alpha-4}-(3-methylbutanoyl)-N{epsilon-7}-[2-(2-{2-[2-(2-{2-[(4S)-4-carboxy-4-(17-carboxyheptadecanamido)butanamido]ethoxy}ethoxy)acetamido]ethoxy}ethoxy)acetamido]-[4A,7K,9E,17T,18Q,22V,23E,28Y,30W,31L]hPYY (4-36)]
660 pM	CC[C@H](C)[C@H](NC(=O)[C@H](CCC(=O)O)NC(=O)[C@H](C)NC(=O)[C@@H]1CCCN1C(=O)[C@H](CO)NC(=O)[C@H](C)NC(=O)[C@H](CC(=O)O)NC(=O)[C@H](CCC(=O)O)NC(=O)[C@H](CCC(=O)O)NC(=O)[C@@H]1CCCN1C(=O)[C@H](CCCCNC(=O)COCCOCCNC(=O)COCCOCCNC(=O)CC[C@H](NC(=O)CCCCCCCCCCCCCCCCC(=O)O)C(=O)O)NC(=O)[C@H](CCC(=O)O)NC(=O)[C@@H]1CCCN1C(=O)[C@H](C)NC(=O)CC(C)C)C(=O)N[C@@H](CCC(N)=O)C(=O)N[C@@H](CCCNC(=N)N)C(=O)N[C@@H](Cc1ccc(O)cc1)C(=O)N[C@@H](Cc1ccc(O)cc1)C(=O)N[C@H](C(=O)N[C@@H](CO)C(=O)N[C@@H](CC(C)C)C(=O)N[C@@H](CCCNC(=N)N)C(=O)N[C@@H](Cc1c[nH]cn1)C(=O)N[C@@H](Cc1ccc(O)cc1)C(=O)N[C@@H](Cc1ccc(O)cc1)C(=O)N[C@@H](CC(N)=O)C(=O)N[C@@H](Cc1c[nH]c2ccccc12)C(=O)N[C@@H](CC(C)C)C(=O)N[C@H](C(=O)N[C@@H](CCCNC(=N)N)C(=O)N[C@@H](CCC(N)=O)C(=O)N[C@@H](CCCNC(=N)N)C(=O)N[C@@H](Cc1ccc(O)cc1)C(N)=O)[C@@H](C)O)C(C)C [Compound 95, N{alpha-4}-(3-methylbutanoyl)-N{epsilon-7}-[2-(2-{2-[2-(2-{2-[(4S)-4-carboxy-4-(17-carboxyheptadecanamido)butanamido]ethoxy}ethoxy)acetamido]ethoxy}ethoxy)acetamido]-[4A,7K,9E,15A,17I,18Q,22V,28Y,30W,31L]hPYY (4-36)]
440 pM	CC(C)CC(=O)N[C@@H](C)C(=O)N1CCC[C@H]1C(=O)N[C@@H](C)C(=O)N[C@@H](CCCCNC(=O)COCCOCCNC(=O)COCCOCCNC(=O)CC[C@H](NC(=O)CCCCCCCCCCCCCCCCC(=O)O)C(=O)O)C(=O)N1CCC[C@H]1C(=O)N1CCC[C@H]1C(=O)N[C@@H](CCC(=O)O)C(=O)N[C@@H](CC(=O)O)C(=O)N[C@@H](C)C(=O)N[C@@H](CO)C(=O)N1CCC[C@H]1C(=O)N[C@@H](CCC(=O)O)C(=O)N[C@@H](CCC(=O)O)C(=O)N[C@@H](CC(C)C)C(=O)N[C@@H](CCC(N)=O)C(=O)N[C@@H](CCCNC(=N)N)C(=O)N[C@@H](Cc1ccc(O)cc1)C(=O)N[C@@H](Cc1ccc(O)cc1)C(=O)N[C@H](C(=O)N[C@@H](CO)C(=O)N[C@@H](CC(C)C)C(=O)N[C@@H](CCCNC(=N)N)C(=O)N[C@@H](Cc1c[nH]cn1)C(=O)N[C@@H](Cc1ccc(O)cc1)C(=O)N[C@@H](Cc1ccc(O)cc1)C(=O)N[C@@H](CC(N)=O)C(=O)N[C@@H](Cc1c[nH]c2ccccc12)C(=O)N[C@@H](CC(C)C)C(=O)N[C@H](C(=O)N[C@@H](CCCNC(=N)N)C(=O)N[C@@H](CCC(N)=O)C(=O)N[C@@H](CCCNC(=N)N)C(=O)N[C@@H](Cc1ccc(O)cc1)C(N)=O)[C@@H](C)O)C(C)C [Compound 100, N{alpha-4}-(3-methylbutanoyl)-N{epsilon-7}-[2-(2-{2-[2-(2-{2-[(4S)-4-carboxy-4-(17-carboxyheptadecanamido)butanamido]ethoxy}ethoxy)acetamido]ethoxy}ethoxy)acetamido]-[4A,6A,7K,9P,18Q,22V,28Y,30W,31L]hPYY (4-36)]
870 pM	CC(C)CC(=O)N[C@@H](C)C(=O)N1CCC[C@H]1C(=O)N[C@@H](CCC(=O)O)C(=O)N[C@@H](CCCCNC(=O)COCCOCCNC(=O)COCCOCCNC(=O)CC[C@H](NC(=O)CCCCCCCCCCCCCCCCC(=O)O)C(=O)O)C(=O)N1CCC[C@H]1C(=O)N[C@@H](CCC(=O)O)C(=O)N[C@@H](CCC(=O)O)C(=O)N[C@@H](CC(=O)O)C(=O)N[C@@H](C)C(=O)N[C@@H](CO)C(=O)N1CCC[C@H]1C(=O)N[C@@H](CCC(=O)O)C(=O)N[C@@H](CCC(=O)O)C(=O)N[C@@H](CC(C)C)C(=O)N[C@@H](CCC(N)=O)C(=O)N[C@@H](CCCNC(=N)N)C(=O)N[C@@H](Cc1ccc(O)cc1)C(=O)N[C@@H](Cc1ccc(O)cc1)C(=O)N[C@H](C(=O)N[C@H](C(=O)N[C@@H](CC(C)C)C(=O)N[C@@H](CCCNC(=N)N)C(=O)N[C@@H](Cc1c[nH]cn1)C(=O)N[C@@H](Cc1ccc(O)cc1)C(=O)N[C@@H](Cc1ccc(O)cc1)C(=O)N[C@@H](CC(N)=O)C(=O)N[C@@H](Cc1c[nH]c2ccccc12)C(=O)N[C@@H](CC(C)C)C(=O)N[C@H](C(=O)N[C@@H](CCCNC(=N)N)C(=O)N[C@@H](CCC(N)=O)C(=O)N[C@@H](CCCNC(=N)N)C(=O)N[C@@H](Cc1ccc(O)cc1)C(N)=O)[C@@H](C)O)[C@@H](C)O)C(C)C [Compound 102, N{alpha-4}-(3-methylbutanoyl)-N{epsilon-7}-[2-(2-{2-[2-(2-{2-[(4S)-4-carboxy-4-(17-carboxyheptadecanamido)butanamido]ethoxy}ethoxy)acetamido]ethoxy}ethoxy)acetamido]-[4A,7K,9E,18Q,22V,23T,28Y,30W,31L]hPYY (4-36)]
1100 pM	CC(C)CC(=O)N[C@@H](C)C(=O)N1CCC[C@H]1C(=O)N[C@@H](CCC(=O)O)C(=O)N[C@@H](CCCCNC(=O)COCCOCCNC(=O)COCCOCCNC(=O)CC[C@H](NC(=O)CCCCCCCCCCCCCCCCC(=O)O)C(=O)O)C(=O)N1CCC[C@H]1C(=O)N[C@@H](CCC(=O)O)C(=O)N[C@@H](CCC(=O)O)C(=O)N[C@@H](CC(=O)O)C(=O)N[C@@H](C)C(=O)N[C@@H](CO)C(=O)N1CCC[C@H]1C(=O)N[C@@H](CCC(=O)O)C(=O)N[C@@H](CCC(=O)O)C(=O)N[C@@H](CC(C)C)C(=O)N[C@@H](CCC(N)=O)C(=O)N[C@@H](CCCCN)C(=O)N[C@@H](Cc1ccc(O)cc1)C(=O)N[C@@H](Cc1ccc(O)cc1)C(=O)N[C@H](C(=O)N[C@@H](C)C(=O)N[C@@H](CC(C)C)C(=O)N[C@@H](CCCNC(=N)N)C(=O)N[C@@H](Cc1c[nH]cn1)C(=O)N[C@@H](Cc1ccc(O)cc1)C(=O)N[C@@H](Cc1ccc(O)cc1)C(=O)N[C@@H](CC(N)=O)C(=O)N[C@@H](Cc1c[nH]c2ccccc12)C(=O)N[C@@H](CC(C)C)C(=O)N[C@H](C(=O)N[C@@H](CCCNC(=N)N)C(=O)N[C@@H](CCC(N)=O)C(=O)N[C@@H](CCCNC(=N)N)C(=O)N[C@@H](Cc1ccc(O)cc1)C(N)=O)[C@@H](C)O)C(C)C [Compound 107, N{alpha-4}-(3-methylbutanoyl)-N{epsilon-7}-[2-(2-{2-[2-(2-{2-[(4S)-4-carboxy-4-(17-carboxyheptadecanamido)butanamido]ethoxy}ethoxy)acetamido]ethoxy}ethoxy)acetamido]-[4A,7K,9E,18Q,19K,22V,23A,28Y,30W,31L]hPYY (4-36)]
